Where two headings read alike, the source gives them in different places.
Key:
[1] = system: L. infantum promastigotes; design: method as in PMID 30840453; conditions: C18-congeners, read-out: L. infantum IC50 ± SD; cited from earlier work
[2] = system: Macrophages J774; conditions: read-out: Macrophages J774 CC50; C18-congeners; cited from earlier work
[3] = system: HeLa (Cervix); conditions: C18-congeners; cited from earlier work
[4] = system: SW1573 (Lung); conditions: C18-congeners; cited from earlier work
[5] = system: A549 (Lung); conditions: C18-congeners; cited from earlier work
[6] = system: L. guyanensis promastigotes; design: method as in PMID 30840453; conditions: C18-congeners, read-out: L. guyanensis IC50 ± SD; cited from earlier work
[7] = biological target: T1, GABAA receptor subtype (α1β2γ2S) (Homo sapiens, UniProt P14867+P18507+P47870); design: expressed in transfected cells; host or cells: Xenopus laevis oocytes; conditions: C18-congeners, cited from earlier work
T1 sequence (P14867 28-456): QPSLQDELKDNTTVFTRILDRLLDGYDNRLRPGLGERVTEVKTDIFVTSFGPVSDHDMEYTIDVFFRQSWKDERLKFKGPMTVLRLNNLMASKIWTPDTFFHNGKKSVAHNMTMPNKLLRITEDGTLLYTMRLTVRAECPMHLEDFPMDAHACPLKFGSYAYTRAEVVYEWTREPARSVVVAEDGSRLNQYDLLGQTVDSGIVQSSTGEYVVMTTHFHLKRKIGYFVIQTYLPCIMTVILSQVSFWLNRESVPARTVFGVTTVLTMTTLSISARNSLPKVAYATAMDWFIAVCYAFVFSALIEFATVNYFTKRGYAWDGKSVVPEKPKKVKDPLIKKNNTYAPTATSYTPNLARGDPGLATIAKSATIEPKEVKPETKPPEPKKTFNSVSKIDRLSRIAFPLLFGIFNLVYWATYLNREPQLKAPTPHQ
T1 sequence (P47870 26-512): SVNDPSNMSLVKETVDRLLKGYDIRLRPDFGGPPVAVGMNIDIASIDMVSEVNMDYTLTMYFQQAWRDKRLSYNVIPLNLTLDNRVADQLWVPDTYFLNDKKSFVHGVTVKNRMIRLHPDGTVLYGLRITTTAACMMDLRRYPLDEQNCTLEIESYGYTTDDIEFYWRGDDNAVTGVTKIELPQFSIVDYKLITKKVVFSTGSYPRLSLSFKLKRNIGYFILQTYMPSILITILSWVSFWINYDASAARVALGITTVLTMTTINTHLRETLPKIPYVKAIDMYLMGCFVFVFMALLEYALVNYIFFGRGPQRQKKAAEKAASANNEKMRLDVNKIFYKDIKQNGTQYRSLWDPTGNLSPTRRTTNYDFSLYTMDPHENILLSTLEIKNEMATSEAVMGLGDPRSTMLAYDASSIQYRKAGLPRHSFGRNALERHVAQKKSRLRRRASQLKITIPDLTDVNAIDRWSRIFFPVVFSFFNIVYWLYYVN
T1 sequence (P18507 40-467 isoform P18507-1 limits assumed): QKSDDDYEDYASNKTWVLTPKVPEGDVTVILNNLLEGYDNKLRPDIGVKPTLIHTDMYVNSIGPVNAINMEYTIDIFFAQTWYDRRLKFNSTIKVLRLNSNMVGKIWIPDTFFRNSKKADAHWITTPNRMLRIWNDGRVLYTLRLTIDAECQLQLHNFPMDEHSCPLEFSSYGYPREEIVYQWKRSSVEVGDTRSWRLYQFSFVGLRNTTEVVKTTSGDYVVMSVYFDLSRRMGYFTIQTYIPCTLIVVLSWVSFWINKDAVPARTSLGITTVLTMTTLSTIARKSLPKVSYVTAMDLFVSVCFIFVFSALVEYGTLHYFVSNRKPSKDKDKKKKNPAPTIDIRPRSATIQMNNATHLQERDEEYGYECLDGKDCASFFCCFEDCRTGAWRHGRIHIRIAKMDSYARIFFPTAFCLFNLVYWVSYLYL

[8] = system: WiDr (Colon); conditions: C18-congeners; cited from earlier work
[9] = system: T-47D (Breast); conditions: C18-congeners; cited from earlier work
[10] = system: L. amazonensis promastigotes; design: method as in PMID 30840453; conditions: C18-congeners, read-out: L. amazonensis IC50 ± SD; cited from earlier work
[11] = system: HBL-100 (Breast); conditions: C18-congeners; cited from earlier work
[12] = system: L. donovani promastigotes; conditions: C18-congeners, read-out: L. donovani IC50 ± SD; cited from earlier work
[13] = system: A549 (Lung); assay: Antiproliferative SRB assay; assay type: cell-based, human
Method: (§1) Cells, cultures and the activity test of abietane analogs followed reported methods. The SRB assay was performed as previously described, and the antiproliferative activity was given as GI50 values, which were calculated according to NCI formulas.

[14] = system: SW1573 (Lung); assay: Antiproliferative SRB assay; assay type: cell-based, human
Method: as §1

[15] = system: WiDr (Colon); assay: Antiproliferative SRB assay; assay type: cell-based, human; conditions: mean ± SD of at least two experiments
Method: as §1

[16] = system: HepG2; assay: Cytotoxicity on mammalian cell lines; assay type: cell-based; conditions: Homo sapiens, HepG2; read-out: HepG2 EC50
Method: (§2) Assays were performed by using previously described DNA stain-based assay and methods, including cytotoxicity assays.

[17] = system: HEK293; assay: Cytotoxicity on mammalian cell lines; assay type: cell-based; conditions: Homo sapiens, HEK293; read-out: HEK293 EC50
Method: as §2

[18] = system: RAJI; assay: Cytotoxicity on mammalian cell lines; assay type: cell-based; conditions: Homo sapiens, read-out: RAJI EC50
Method: as §2

[19] = system: BJ; assay: Cytotoxicity on mammalian cell lines; assay type: cell-based; conditions: Homo sapiens, read-out: BJ EC50
Method: as §2

[20] = in vitro; conditions: mouse, Macrophages J774 CC50
[21] = system: HBL-100 (Breast); assay: Antiproliferative SRB assay; assay type: cell-based; conditions: Homo sapiens, mean ± SD of at least two experiments
Method: as §1

[22] = system: HeLa (Cervix); assay: Antiproliferative SRB assay; assay type: cell-based; conditions: Homo sapiens, mean ± SD of at least two experiments
Method: as §1

[23] = system: T-47D (Breast); assay: Antiproliferative SRB assay; assay type: cell-based; conditions: Homo sapiens, T47D, mean ± SD of at least two experiments
Method: as §1

[24] = biological target: T1, GABAA receptor subtype (α1β2γ2S); assay: Two-microelectrode voltage-clamp in Xenopus laevis oocytes
Method: All molecules were tested at concentrations of 10, 100 μM and compared with dehydroabietic acid (DHA) (3) as a reference [16].

[25] = system: P. falciparum K1 strain; assay: Antiplasmodial DNA stain-based growth assay; assay type: cell-based; conditions: Plasmodium falciparum, K1; chloroquine-resistant strain; 72 h incubation; read-out: P. falciparum K1 EC50
Method: as §2

[26] = system: P. falciparum 3D7 strain; assay: Antiplasmodial DNA stain-based growth assay; assay type: cell-based; conditions: Plasmodium falciparum, 3D7; chloroquine-sensitive strain; 72 h incubation; read-out: P. falciparum 3D7 EC50
Method: as §2

[27] = system: L. amazonensis promastigotes; assay: Antileishmanial in vitro promastigote assay; conditions: Leishmania amazonensis, read-out: L. amazonensis IC50 ± SD
Method: (§3) The compounds were additionally studied in a panel of mammalian cell lines to determine cytotoxicity.
(§4) The parasites, culture procedure and the activity of functionalized abietane analogs on Leishmania promastigotes were performed according to the method previously reported by us [28], while the intracellular amastigote assay was performed on L. amazonensis and L. infantum according to the fluorometric test [29]. The J774 cell culture and the cytotoxicity assay was carried out according to our previously described method [30].

[28] = system: L. guyanensis promastigotes; assay: Antileishmanial in vitro promastigote assay; conditions: Leishmania guyanensis, read-out: L. guyanensis IC50 ± SD
Method: as §3, §4

[29] = system: L. infantum amastigotes; assay: Intracellular amastigote assay (fluorometric test); assay type: cell-based; conditions: Leishmania infantum, read-out: L. infantum IC50 ± SD
[30] = system: L. donovani promastigotes; assay: Antileishmanial in vitro promastigote assay; conditions: Leishmania donovani, read-out: L. donovani IC50 ± SD
Method: as §3, §4

[31] = system: L. infantum promastigotes; assay: Antileishmanial in vitro promastigote assay; conditions: Leishmania infantum, read-out: L. infantum IC50 ± SD
[32] = system: L. amazonensis amastigotes; assay: Intracellular amastigote assay (fluorometric test); assay type: cell-based; conditions: Leishmania amazonensis, read-out: L. amazonensis IC50 ± SD
[33] = Homo sapiens, A549, mean ± SD of at least two experiments
[34] = Homo sapiens, SW1573, mean ± SD of at least two experiments
[35] = mean ± SD of at least two experiments

| SMILES | IC50 [1] | CC50 [2] | GI50 [3] | GI50 [4] | GI50 [5] | IC50 [6] | IGABA Potentiation of 10 µM (%) [7] | IGABA Potentiation of 100 µM (%) [7] | GI50 [8] | GI50 [9] | IC50 [10] | GI50 [11] | IC50 [12] | further results |
| --- | --- | --- | --- | --- | --- | --- | --- | --- | --- | --- | --- | --- | --- | --- |
| CC(C)c1cc2c(cc1O)[C@@]1(C)CCC[C@@](C)(C(=O)O)C1CC2 (stereo partly drawn) [Compound 13b, 12-hydroxydehydroabietic acid] | 43.6 ± 3.4 µM | 85.8 ± 28.8 µM | 96 ± 5.5 µM | 93 ± 9.3 µM | 70 ± 6.3 µM | 71.4 ± 1.5 µM | 8.9 ± 2.3% | 12.1 ± 2.9% | > 100 µM | > 100 µM | 54.1 ± 6.5 µM | > 100 µM | 58.1 ± 0.7 µM | – |
| CC(C)c1cc2c(cc1O)[C@@]1(C)CCC[C@@](C)(CO)[C@@H]1CC2 [Compound 14b] | 0.7 ± 0.1 µM | 23.4 ± 4.6 µM | 12 ± 1.8 µM | 15 ± 2.8 µM | 12 ± 1.9 µM | 12.5 ± 2.2 µM | 29.3 ± 10.6% | 154.1 ± 34.2% | 17 ± 1.3 µM | 16 ± 0.9 µM | 7.7 ± 0.8 µM | 16 ± 2 µM | 13.9 ± 0.1 µM | – |
| CC(C)c1cc2c(cc1O)[C@@]1(C)CCC[C@](C)(CO)[C@@H]1CC2=O [Compound 15, 19-hydroxysugiol] | – | – | – | – | – | – | – | – | – | – | – | – | – | GI50 [13, 33]: 10 ± 0.3 µM; GI50 [14, 34]: 19 ± 3.3 µM; GI50 ([15]; Homo sapiens, WiDr): 17 ± 5 µM; EC50 [16]: > 25 µM; EC50 [17]: > 25 µM; EC50 [18]: > 25 µM; EC50 [19]: > 25 µM; CC50 [20]: 50.1 ± 2.4 µM; GI50 [21]: 17 ± 1.7 µM; GI50 [22]: 15 ± 1.1 µM; GI50 [23]: 19 ± 1.1 µM; IGABA Potentiation of 100 µM (%) ([24]; 100 µM, α1β2γ2S receptors): 238 ± 28%; activation at 10 µM ([24]; read-out: IGABA Potentiation of 10 µM (%)): 30 ± 14%; activation at 100 µM ([24]; read-out: IGABA Potentiation of 100 µM (%)): 238%; EC50 [25]: 9.4 µM; EC50 [26]: > 15 µM |
| CC(C)c1cc2c(cc1O)[C@@]1(C)CCC[C@@](C)(CO)[C@@H]1CC2=O [Compound 15b] | 9.7 ± 0.8 µM | 14.4 ± 2.8 µM | 16 ± 2.4 µM | 23 ± 0.7 µM | 19 ± 3.3 µM | 16.5 ± 0.7 µM | 4.5 ± 5.8% | −30.3 ± 9.5% | 19 ± 2.1 µM | 20 ± 2.7 µM | 10.2 ± 0.6 µM | 16 ± 2 µM | 19.7 ± 0.4 µM | – |
| COC(=O)[C@]1(C)CCC[C@]2(C)c3cc(O)c(C(C)C)cc3C(=O)C[C@@H]12 [Compound 16b] | – | 154 ± 49.3 µM | > 100 µM | > 100 µM | > 100 µM | – | 37.4 ± 12.7% | 242.4 ± 46.0% | > 100 µM | > 100 µM | – | > 100 µM | – | – |
| CC(C)=CCC[C@]1(C)C=Cc2c(O)c3c(c(CC=C(C)C)c2O1)O[C@]12C(=C[C@@H]4C[C@H]1C(C)(C)O[C@@]2(C/C=C(/C)C(=O)O)C4=O)C3=O [Gambogic acid, reference compound] | – | – | – | – | – | – | – | – | – | – | – | – | – | EC50 [16]: > 25 µM; EC50 [17]: 0.21 µM; EC50 [18]: 0.24 µM; EC50 [19]: 0.21 µM |
| CCCCCCCCCCCCCCCCOP(=O)([O-])OCC[N+](C)(C)C [Miltefosine, reference compound] | – | – | – | – | – | – | – | – | – | – | – | – | – | IC50 [27]: 47.7 ± 5 µM; IC50 [28]: 18.2 ± 0.6 µM; IC50 [29]: 58.1 ± 4.4 µM; IC50 [30]: 0.15 ± 0.02 µM; CC50 [20]: 136 ± 1.4 µM; IC50 [31]: 3.4 ± 0.6 µM; IC50 [32]: 16.5 ± 1.9 µM |
| N.N.[Cl][Pt][Cl] [cisplatin, reference compound] | – | – | – | – | – | – | – | – | – | – | – | – | – | GI50 [13, 35]: 4.9 ± 0.2 µM; GI50 [14, 35]: 2.7 ± 0.4 µM; GI50 [15]: 23 ± 4.3 µM |
| COc1cc([C@@H]2c3cc4c(cc3[C@@H](O[C@@H]3O[C@@H]5CO[C@@H](C)O[C@H]5[C@H](O)[C@H]3O)[C@H]3COC(=O)[C@H]23)OCO4)cc(OC)c1O [etoposide, reference compound] | – | – | – | – | – | – | – | – | – | – | – | – | – | GI50 [13, 33]: 1.5 ± 0.3 µM; GI50 [14, 34]: 15 ± 1.5 µM; GI50 ([15]; Homo sapiens, WiDr): 23 ± 3.1 µM; GI50 [21]: 1.4 ± 0.1 µM; GI50 [22]: 3.3 ± 1.6 µM; GI50 [23]: 22 ± 5.5 µM |
